Reference: patent publication US8148391B2 (Cephalon, Inc., priority 2006, dated 2012)
Where two headings read alike, the source gives them in different places.

Columns and labels:
[1] = target: T1, c-Met (cytoplasmic domain) (Homo sapiens, UniProt P08581); test: c-Met Kinase Assay (same methods as for ALK, with modifications); assay type: biochemical
T1 construct: 10 ng/mL c-Met (cytoplasmic domain, Invitrogen Corporation #PV3143); purchased Invitrogen Corporation PV3143
In short: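 Steps: coat wells with PLC-γ (10 μg/mL, Tris-buffered saline); add 10 ng/mL c-Met cytoplasmic domain to initiate; incubate 15 min, 37° C; detect phosphoproduct via Eu-N1 PT66 antibody.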

[2] = target: T2, baculovirus-expressed ALK (Homo sapiens, UniProt Q9UM73); test: ALK Kinase Assay (ELISA-type, time-resolved fluorescence); assay type: biochemical
T2 construct: host or cells: baculovirus expression system
T2 sequence (Q9UM73 19-1620): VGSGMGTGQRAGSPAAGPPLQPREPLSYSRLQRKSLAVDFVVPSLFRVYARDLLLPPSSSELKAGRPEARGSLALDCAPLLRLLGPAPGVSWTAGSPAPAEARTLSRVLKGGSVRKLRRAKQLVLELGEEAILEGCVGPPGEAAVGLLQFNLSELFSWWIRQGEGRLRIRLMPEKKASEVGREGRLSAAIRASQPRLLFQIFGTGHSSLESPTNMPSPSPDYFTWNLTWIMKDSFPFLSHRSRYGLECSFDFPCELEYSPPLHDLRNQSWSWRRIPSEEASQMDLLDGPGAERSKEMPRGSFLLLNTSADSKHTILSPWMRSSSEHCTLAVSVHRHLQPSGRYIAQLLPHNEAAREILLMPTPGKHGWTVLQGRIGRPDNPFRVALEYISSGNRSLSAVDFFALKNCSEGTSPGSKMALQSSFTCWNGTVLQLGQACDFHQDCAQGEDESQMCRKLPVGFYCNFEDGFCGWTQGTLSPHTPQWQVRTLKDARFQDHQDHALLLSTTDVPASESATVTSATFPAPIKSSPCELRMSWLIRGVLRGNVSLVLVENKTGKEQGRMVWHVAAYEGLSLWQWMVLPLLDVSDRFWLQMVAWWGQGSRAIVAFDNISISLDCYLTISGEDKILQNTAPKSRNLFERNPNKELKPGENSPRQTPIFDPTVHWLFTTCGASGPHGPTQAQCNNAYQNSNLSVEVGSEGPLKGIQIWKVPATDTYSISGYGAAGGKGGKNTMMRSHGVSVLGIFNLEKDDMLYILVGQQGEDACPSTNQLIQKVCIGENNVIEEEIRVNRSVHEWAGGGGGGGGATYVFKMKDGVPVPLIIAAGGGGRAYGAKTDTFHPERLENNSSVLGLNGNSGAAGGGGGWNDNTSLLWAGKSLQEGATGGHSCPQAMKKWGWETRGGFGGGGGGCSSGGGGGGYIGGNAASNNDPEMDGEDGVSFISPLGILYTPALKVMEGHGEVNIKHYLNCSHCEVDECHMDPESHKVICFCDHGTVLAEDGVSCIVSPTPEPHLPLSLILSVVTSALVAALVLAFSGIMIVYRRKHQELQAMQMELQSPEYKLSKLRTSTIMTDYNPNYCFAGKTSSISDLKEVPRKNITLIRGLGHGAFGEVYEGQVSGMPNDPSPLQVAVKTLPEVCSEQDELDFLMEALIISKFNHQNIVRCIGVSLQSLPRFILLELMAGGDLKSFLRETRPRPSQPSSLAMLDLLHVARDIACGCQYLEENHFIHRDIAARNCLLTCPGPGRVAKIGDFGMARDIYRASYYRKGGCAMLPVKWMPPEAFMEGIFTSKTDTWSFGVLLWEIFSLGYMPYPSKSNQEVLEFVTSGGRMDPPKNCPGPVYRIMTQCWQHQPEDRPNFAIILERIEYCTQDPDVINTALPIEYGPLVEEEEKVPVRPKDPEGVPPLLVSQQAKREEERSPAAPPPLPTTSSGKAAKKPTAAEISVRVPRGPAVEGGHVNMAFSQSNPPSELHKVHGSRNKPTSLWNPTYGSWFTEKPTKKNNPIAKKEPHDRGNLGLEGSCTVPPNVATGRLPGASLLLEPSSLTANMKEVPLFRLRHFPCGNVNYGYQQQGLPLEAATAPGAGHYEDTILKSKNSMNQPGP
In short: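 Wells were coated with phospholipase C-γ at 10 μg/mL in Tris-buffered saline. Adding 30 ng/ml enzyme started the reaction, which ran at 37° C for 15 minutes before Eu-N1 PT66 antibody detection. Percent inhibition versus log10 concentration gave IC50 by variable-slope fit.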

[3] = 1 μM ATP (Km level), read-out: cMet Activity (c-Met Kinase Inhibition, IC50)
[4] = 1 μM ATP (Km level), read-out: ALK Activity (ALK Kinase Inhibition, IC50)
[5] = 1 μM ATP (Km level), 10 ng/mL c-Met, read-out: cMet Activity (c-Met kinase inhibition, IC50 class)
[6] = 1 μM ATP (Km level), 30 ng/ml ALK, 37° C., 15 minutes, read-out: ALK Activity (ALK kinase inhibition, IC50 class)
[7] = c-Met kinase inhibition, 1 μM ATP, read-out: cMet Activity
[8] = ALK kinase inhibition, 1 μM ATP, read-out: ALK Activity
[9] = c-Met kinase inhibition, 1 μM ATP (Km level), read-out: cMet Activity
[10] = ALK kinase inhibition, 1 μM ATP (Km level), read-out: ALK Activity

T1 sequence (P08581 956-1390 limits assumed): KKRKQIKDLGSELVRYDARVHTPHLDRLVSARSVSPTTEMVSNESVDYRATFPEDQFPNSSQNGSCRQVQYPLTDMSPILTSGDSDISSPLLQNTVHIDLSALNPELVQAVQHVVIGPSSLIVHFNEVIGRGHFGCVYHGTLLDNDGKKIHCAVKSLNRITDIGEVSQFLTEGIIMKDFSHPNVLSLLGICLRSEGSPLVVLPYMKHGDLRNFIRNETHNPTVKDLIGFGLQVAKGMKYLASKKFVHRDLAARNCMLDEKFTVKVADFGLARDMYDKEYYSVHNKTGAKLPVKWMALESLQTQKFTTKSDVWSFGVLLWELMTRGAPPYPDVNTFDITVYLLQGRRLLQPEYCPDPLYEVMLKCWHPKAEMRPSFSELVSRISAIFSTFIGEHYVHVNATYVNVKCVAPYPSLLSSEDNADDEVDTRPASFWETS

Row | SMILES | IC50 [1, 5] [µM] | IC50 [2, 6] [µM] | IC50 [1, 7] [µM] | IC50 [2, 8] [µM] | also measured
1 | COc1c(Nc2ncc(Cl)c(N[C@@H]3CCCC[C@H]3NS(C)(=O)=O)n2)ccc2c1CCC(N1CCOCC1)CC2 (mixture of isomers) [Example 884, N-{(1R,2R)-2-[5-Chloro-2-(1-methoxy-7-morpholin-4-yl-6,7,8,9-tetrahydro-5H-benzocyclohepten-2-ylamino)-pyrimidin-4-ylamino]-cyclohexyl}-methanesulfonamide] | – | – | – | – | IC50 [1, 3]: > 10 µM; IC50 [2, 4]: < 0.1 µM
2 | CCN1CCc2cc(Nc3ncc(Cl)c(N[C@H]4[C@@H](C(N)=O)[C@@H]5C=C[C@H]4C5)n3)c(OC)cc2CC1 [Example 773, (1S,2S,3R,4R)-3-[5-Chloro-2-(3-ethyl-8-methoxy-2,3,4,5-tetrahydro-1H-benzo[d]azepin-7-ylamino)-pyrimidin-4-ylamino]-bicyclo[2.2.1]hept-5-ene-2-carboxylic acid amide] | – | – | – | – | IC50 [1, 3]: > 10 µM; IC50 [2, 4]: < 0.1 µM
3 | CN1C(=O)CCCc2cc(Nc3ncc(Cl)c(Nc4ccccc4C(=O)NCCC#N)n3)ccc21 [Example 871, 2-[5-Chloro-2-(1-methyl-2-oxo-2,3,4,5-tetrahydro-1H-benzo[b]azepin-7-ylamino)-pyrimidin-4-ylamino]-N-(2-cyano-ethyl)-benzamide] | – | – | – | – | IC50 [1, 3]: < 0.1 µM; IC50 [2, 4]: < 0.1 µM
4 | CCN1C(=O)C(NC(=O)C(F)(F)F)CCc2c1ccc(Nc1ncc(Cl)c(Nc3ccccc3S(=O)(=O)N(C)C)n1)c2OC (stereo not shown) [Example 1334, N-{7-[5-Chloro-4-(2-dimethylsulfamoyl-phenylamino)-pyrimidin-2-ylamino]-1-ethyl-6-methoxy-2-oxo-2,3,4,5-tetrahydro-1H-benzo[b]azepin-3-yl}-2,2,2-trifluoro-acetamide] | > 10 | < 0.1 | – | – | –
5 | CNC(=O)c1cccc(Cl)c1Nc1nc(Nc2ccc3c(c2)CN(C)C(=O)CC3)ncc1Cl [Example 1805, 3-Chloro-2-[5-chloro-2-(2-methyl-3-oxo-2,3,4,5-tetrahydro-1H-benzo[c]azepin-8-ylamino)-pyrimidin-4-ylamino]-N-methyl-benzamide] | – | – | 0.1 to 1 | < 0.1 | –
6 | CC(C)[C@@H](Nc1nc(Nc2ccc3c(c2)CC(=O)N(C)CC3)ncc1Cl)C(N)=O [Example 1822, (R)-2-[5-Chloro-2-(3-methyl-4-oxo-2,3,4,5-tetrahydro-1H-benzo[d]azepin-7-ylamino)-pyrimidin-4-ylamino]-3-methyl-butyramide] | – | – | 1 to 10 | 1 to 10 | –
7 | CC(C)S(=O)(=O)c1cccc(F)c1Nc1nc(Nc2ccc3c(c2)C(C)(C)CCC(=O)N3)ncc1Cl [Example 1254, 7-{5-Chloro-4-[2-fluoro-6-(propane-2-sulfonyl)-phenylamino]-pyrimidin-2-ylamino}-5,5-dimethyl-1,3,4,5-tetrahydro-1-benzazepin-2-one] | 1 to 10 | < 0.1 | – | – | –
8 | CCN1C(=O)C(NC(=O)CN(C)C)CCc2c1ccc(Nc1ncc(Cl)c(Nc3ccccc3S(=O)(=O)N(C)C)n1)c2OC (stereo not shown) [Example 1356, N-{7-[5-Chloro-4-(2-dimethylsulfamoyl-phenylamino)-pyrimidin-2-ylamino]-1-ethyl-6-methoxy-2-oxo-2,3,4,5-tetrahydro-1H-benzo[b]azepin-3-yl}-2-dimethylamino-acetamide] | > 10 | < 0.1 | – | – | –
9 | COc1cc2c(cc1Nc1ncc(Cl)c(Nc3ccc(N4CCOCC4)cc3OC)n1)CCN(C(=O)CN(C)C)CC2 [Example 1121, 1-{7-[5-Chloro-4-(2-methoxy-4-morpholin-4-yl-phenylamino)-pyrimidin-2-ylamino]-8-methoxy-1,2,4,5-tetrahydro-benzo[d]azepin-3-yl}-2-dimethylamino-ethanone] | > 10 | < 0.1 | – | – | –
10 | CCN1C(=O)CN(CCOC)Cc2cc(OC)c(Nc3ncc(Cl)c(Nc4ccc(N5CCOCC5)cc4OC)n3)cc21 [Example 726, 8-[5-Chloro-4-(2-methoxy-4-morpholin-4-yl-phenylamino)-pyrimidin-2-ylamino]-1-ethyl-7-methoxy-4-(2-methoxy-ethyl)-1,3,4,5-tetrahydro-benzo[e][1,4]diazepin-2-one] | – | – | – | – | IC50 [1, 3]: > 10 µM; IC50 [2, 4]: 0.1 to 1 µM
11 | CCN1C(=O)OCCc2cc(Nc3ncc(Cl)c(Nc4c(F)cccc4C(=O)NC)n3)ccc21 [Example 1746, 2-[5-chloro-2-(5-ethyl-6-oxo-5,6,8,9-tetrahydro-7-oxa-5-aza-benzocyclohepten-2-ylamino)-pyrimidin-4-ylamino]-3-fluoro-N-methyl-benzamide] | – | – | < 0.1 | < 0.1 | –
12 | NC(=O)[C@@H]1[C@H](Nc2nc(Nc3ccc4c(c3)CCC(O)CC4)ncc2Cl)[C@H]2C=C[C@@H]1C2 (stereo partly drawn) [Example 1017, (1S,2S,3R,4R)-3-[5-Chloro-2-(7-hydroxy-6,7,8,9-tetrahydro-5H-benzocyclohepten-2-ylamino)-pyrimidin-4-ylamino]-bicyclo[2.2.1]hept-5-ene-2-carboxylic acid amide] | 0.1 to 1 | < 0.1 | – | – | –
13 | CCN1CCc2c(Nc3ncc(Cl)c(Nc4ccccc4C(=O)NC)n3)ccc(OC)c2CC1 [Example 154, 2-[5-Chloro-2-(3-ethyl-9-methoxy-2,3,4,5-tetrahydro-1H-benzo[d]azepin-6-ylamino)-pyrimidin-4-ylamino]-N-methyl-benzamide] | – | – | – | – | IC50 [1, 9]: > 10 µM; IC50 [2, 10]: 0.1 to 1 µM
14 | COCCN1CCc2cc(Nc3ncc(Cl)c(NC4C5C=CC(C5)C4C(=O)NC(C)C)n3)c(OC)cc2CC1 (stereo not drawn) [Example 605, (2-exo-3-exo)-3-{5-Chloro-2-[8-methoxy-3-(2-methoxy-ethyl)-2,3,4,5-tetrahydro-1H-benzo[d]azepin-7-ylamino]-pyrimidin-4-ylamino}-bicyclo[2.2.1]hept-5-ene-2-carboxylic acid isopropylamide] | – | – | – | – | IC50 [1, 3]: > 10 µM; IC50 [2, 4]: < 0.1 µM
15 | COCCN1CCc2ccc(Nc3ncc(Cl)c(Nc4ccccc4OCCN4CCOCC4)n3)cc2CC1 [Example 1466, 5-Chloro-N*2*-[3-(2-methoxy-ethyl)-2,3,4,5-tetrahydro-1H-enzo[d]azepin-7-yl]-N*4*-[2-(2-morpholin-4-yl-ethoxy)-phenyl]-pyrimidine-2,4-diamine] | – | – | > 10 | 1 to 10 | –
16 | COCCOc1cccc(F)c1Nc1nc(Nc2ccc3c(c2)NC(=O)CCC3)ncc1Cl [Example 1695, 8-{5-Chloro-4-[2-fluoro-6-(2-methoxy-ethoxy)-phenylamino]-pyrimidin-2-ylamino}-1,3,4,5-tetrahydro-benzo[b]azepin-2-one] | – | – | 0.1 to 1 | 0.1 to 1 | –
17 | CN(CCC#N)c1cccc(F)c1Nc1nc(Nc2ccc3c(c2)C(C)(C)CCC(=O)N3)ncc1Cl [Example 1267, 3-({2-[5-Chloro-2-(5,5-dimethyl-2-oxo-2,3,4,5-tetrahydro-1H-1-benzazepin-7-ylamino)-pyrimidin-4-ylamino]-3-fluoro-phenyl}-methyl-amino)-propionitrile] | 1 to 10 | 0.1 to 1 | – | – | –
18 | CNC(=O)c1scc(C)c1Nc1nc(Nc2ccc3c(c2)C(C)(C)CCC(=O)N3)ncc1Cl [Example 1572, 3-[5-Chloro-2-(5,5-dimethyl-2-oxo-2,3,4,5-tetrahydro-1H-benzo[b]azepin-7-ylamino)-pyrimidin-4-ylamino]-4-methyl-thiophene-2-carboxylic acid methyl amide] | – | – | 0.1 to 1 | 0.1 to 1 | –
19 | COCCN1CCc2ccc(Nc3ncc(Cl)c(Nc4cccc5c4ncn5C)n3)cc2CC1 [Example 1006, 5-Chloro-N*2*-[3-(2-methoxy-ethyl)-2,3,4,5-tetrahydro-1H-benzo[d]azepin-7-yl]-N*4*-(1-methyl-1H-benzoimidazol-4-yl)-pyrimidine-2,4-diamine] | – | – | – | – | IC50 [1, 3]: 1 to 10 µM; IC50 [2, 4]: 0.1 to 1 µM
20 | CCN1C2CCC1c1cc(Nc3ncc(Cl)c(N[C@@H]4CCCC[C@H]4NS(C)(=O)=O)n3)ccc1C2 (stereo partly drawn) [Example 71, N-{(1R,2R)-2-[5-Chloro-2-(12-ethyl-12-aza-tricyclo[7.2.1.0*2,7*]dodeca-2(7),3,5-trien-4-ylamino)-pyrimidin-4-ylamino]-cyclohexyl}-methanesulfonamide] | – | – | – | – | IC50 [1, 9]: 0.1 to 1 µM; IC50 [2, 10]: < 0.1 µM
21 | CNC(=O)c1scc(C)c1Nc1nc(Nc2ccc3c(c2)CC(=O)NCC3)ncc1Cl [Example 1812, 3-[5-Chloro-2-(4-oxo-2,3,4,5-tetrahydro-1H-benzo[d]azepin-7-ylamino)-pyrimidin-4-ylamino]-4-methyl-thiophene-2-carboxylic acid methylamide] | – | – | < 0.1 | < 0.1 | –
22 | CCN1C(=O)CCCc2c1ccc(Nc1ncc(Cl)c(N[C@H]3[C@@H](C(N)=O)[C@@H]4C=C[C@H]3C4)n1)c2OC [Example 133, (1S,2S,3R,4R)-3-[5-Chloro-2-(1-ethyl-6-methoxy-2-oxo-2,3,4,5-tetrahydro-1H-benzo[b]azepin-7-ylamino)-pyrimidin-4-ylamino]-bicyclo[2.2.1]hept-5-ene-2-carboxylic acid amide] | – | – | – | – | IC50 [1, 9]: > 10 µM; IC50 [2, 10]: < 0.1 µM
23 | COc1cc2c(cc1Nc1ncc(Cl)c(Nc3ccccc3S(=O)(=O)N3CC[C@H](O)C3)n1)CCN(CC(=O)N(C)C)CC2 [Example 1206, 2-(7-{5-Chloro-4-[2-((S)-3-hydroxy-pyrrolidine-1-sulfonyl)-phenylamino]-pyrimidin-2-ylamino}-8-methoxy-1,2,4,5-tetrahydro-benzo[d]azepin-3-yl)-N,N-dimethyl-acetamide] | 1 to 10 | < 0.1 | – | – | –
